From PubChem BioAssay (NCI)
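In this assay, cells in 96-well plates receive the compound at five concentrations for 48 hours. Endpoints are linearly interpolated between the surrounding concentrations. TGI denotes the concentration required for complete inhibition of growth.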

Key:
Assay in all cases: DTP human tumour cell line panel, 48 h
[1] = tested on: SF-539 CNS
[2] = tested on: SF-295 CNS
[3] = tested on: K-562 leukemia
[4] = tested on: OVCAR-5 ovarian
[5] = tested on: UACC-62 melanoma
[6] = tested on: A549 NSCLC
[7] = tested on: IGROV1 ovarian
[8] = tested on: CAKI-1 renal
[9] = tested on: LOX IMVI melanoma
[10] = tested on: SK-OV-3 ovarian
[11] = tested on: MALME-3M melanoma
[12] = tested on: OVCAR-3 ovarian
[13] = tested on: COLO 205 colon
[14] = tested on: MDA-MB-435

Row | Structure (SMILES) | TGI [1] | TGI [2] | TGI [3] | TGI [4] | TGI [5] | TGI [6] | TGI [7] | TGI [8] | TGI [9] | TGI [10] | TGI [11] | TGI [12] | TGI [13] | TGI [14]
1 | Cc1cc(NC(=S)Nc2ccccc2)c(NC(=S)Nc2ccccc2)cc1C | 50.6 µM | 62.2 µM | 41.2 µM | > 100 µM | > 100 µM | > 100 µM | > 100 µM | > 89.6 µM | > 100 µM | > 75 µM | > 100 µM | 50.9 µM | > 74.3 µM | –
2 | COCc1nc2c(OC)cc(-c3nc4nc(N5CCN(C)CC5)ccc4[nH]3)c(OC)c2[nH]1 | – | > 100 µM | > 100 µM | > 100 µM | > 100 µM | > 100 µM | > 100 µM | > 100 µM | > 100 µM | > 100 µM | 44.2 µM | 83 µM | > 100 µM | > 100 µM
3 | N#C[S-].[Nd+3].c1cnc2c(c1)ccc1cccnc12.c1cnc2c(c1)ccc1cccnc12.c1cnc2c(c1)ccc1cccnc12 | 14 µM | 0.991 µM | > 100 µM | 15.3 µM | 5.44 µM | 10.5 µM | 25.3 µM | 15.1 µM | 13.1 µM | 12.5 µM | 9.54 µM | 16.1 µM | 15.6 µM | –
4 | O=C1C=CC2(O[C@H](c3ccccc3)[C@@H](c3ccccc3)O2)C(SC(=O)c2ccccc2)C1 (stereo partly specified) | 3.29 µM | 6.85 µM | > 100 µM | 3.27 µM | 5.84 µM | 17.4 µM | 2.86 µM | 6.53 µM | 2.33 µM | 7.01 µM | 6.54 µM | 4.41 µM | 2.69 µM | 4.8 µM
5 | CCC(=O)Nc1ccc(N=Cc2cccc(Oc3ccccc3)c2)cc1 | 35.9 µM | > 100 µM | > 100 µM | – | > 100 µM | > 100 µM | > 100 µM | > 100 µM | > 100 µM | > 100 µM | > 100 µM | > 100 µM | > 100 µM | > 100 µM
